Source: PubChem BioAssay (NCI)
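All cell lines were grown in 96-well plates and treated with compound for 48 hours. GI50: concentration for 50% inhibition of growth. TGI: total growth inhibition.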

Experiments:
Experiment in all cases: NCI anticancer screen, dose series, 48 h
[1] = tested on: SR leukemia
[2] = tested on: HOP-92 NSCLC
[3] = tested on: NCI-H226 lung
[4] = tested on: NCI/ADR-RES ovarian
[5] = tested on: HT29 colon
[6] = tested on: EKVX NSCLC
[7] = tested on: ACHN renal
[8] = tested on: M14 melanoma
[9] = tested on: HCT-15 colon
[10] = tested on: SK-MEL-2 melanoma
[11] = tested on: SF-539 CNS
[12] = tested on: IGROV1 ovarian
[13] = tested on: A498 renal
[14] = tested on: T-47D breast
[15] = tested on: HCT-116 colon
[16] = tested on: SN12C renal
[17] = tested on: SK-OV-3 ovarian
[18] = tested on: SNB-75 CNS
[19] = tested on: HS 578T breast
[20] = tested on: UACC-257 melanoma
[21] = tested on: RPMI-8226 leukemia
[22] = tested on: LOX IMVI melanoma
[23] = tested on: U251 CNS
[24] = tested on: COLO 205 colon
[25] = tested on: HOP-62 NSCLC
[26] = tested on: UO-31 renal
[27] = tested on: OVCAR-5 ovarian
[28] = tested on: K-562 leukemia
[29] = tested on: HCC-2998 colon
[30] = tested on: MDA-MB-435
[31] = tested on: RXF 393 renal
[32] = tested on: SW-620 colon
[33] = tested on: MCF7 breast
[34] = tested on: A549 NSCLC
[35] = tested on: CCRF-CEM leukemia
[36] = tested on: DU-145 prostate
[37] = tested on: KM12 colon
[38] = tested on: OVCAR-8 ovarian
[39] = tested on: MOLT-4 leukemia
[40] = tested on: CAKI-1 renal
[41] = tested on: 786-0 renal
[42] = tested on: NCI-H23 lung
[43] = tested on: MDA-MB-231 breast
[44] = tested on: NCI-H522 lung
[45] = tested on: SK-MEL-5 melanoma
[46] = tested on: MALME-3M melanoma
[47] = tested on: TK-10 renal
[48] = tested on: UACC-62 melanoma
[49] = tested on: PC-3 prostate
[50] = tested on: OVCAR-4 ovarian
[51] = tested on: NCI-H460 lung
[52] = tested on: SF-295 CNS
[53] = tested on: SNB-19 CNS
[54] = tested on: SK-MEL-28 melanoma
[55] = tested on: HL-60(TB) leukemia
[56] = tested on: SF-268 CNS
[57] = tested on: BT-549 breast

What does the source list for `NC(=O)n1c(=O)n(-c2cccc(C(F)(F)F)c2)c(=O)c2cc(-c3ccc(F)cc3F)ccc21`?
GI50 [1]: 580 nM; TGI [1]: 4600 nM; GI50 [2]: 149 nM; TGI [2]: 568 nM; GI50 [3]: 1310 nM; TGI [3]: 3990 nM; GI50 [4]: 2060 nM; TGI [4]: 8870 nM; GI50 [5]: 4380 nM; TGI [5]: 18800 nM; GI50 [6]: 2830 nM; TGI [6]: 9590 nM; GI50 [7]: 2420 nM; TGI [7]: 10100 nM; GI50 [8]: 1340 nM; TGI [8]: 3800 nM; GI50 [9]: 790 nM; TGI [9]: 2680 nM; GI50 [10]: 750 nM; TGI [10]: 2820 nM; GI50 [11]: 2110 nM; TGI [11]: 8500 nM; GI50 [12]: 2120 nM; TGI [12]: 15100 nM; GI50 [13]: 512 nM; TGI [13]: 1930 nM; GI50 [14]: 1610 nM; TGI [14]: 6280 nM; GI50 [15]: 559 nM; TGI [15]: 1980 nM; GI50 [16]: 1270 nM; TGI [16]: 7240 nM; GI50 [17]: 1600 nM; TGI [17]: 4420 nM; GI50 [18]: 1810 nM; TGI [18]: 7470 nM; GI50 [19]: 2120 nM; TGI [19]: 7060 nM; GI50 [20]: 1060 nM; TGI [20]: 4540 nM; GI50 [21]: 990 nM; TGI [21]: 5120 nM; GI50 [22]: 1680 nM; TGI [22]: 3760 nM; GI50 [23]: 2010 nM; TGI [23]: 11100 nM; GI50 [24]: 3350 nM; TGI [24]: 10600 nM; GI50 [25]: 1960 nM; TGI [25]: 4790 nM; GI50 [26]: 2190 nM; TGI [26]: 8440 nM; GI50 [27]: 3380 nM; TGI [27]: 14400 nM; GI50 [28]: 771 nM; TGI [28]: 80300 nM; GI50 [29]: 2760 nM; TGI [29]: 9260 nM; GI50 [30]: 1890 nM; TGI [30]: 7330 nM; GI50 [31]: 1230 nM; TGI [31]: 3130 nM; GI50 [32]: 2650 nM; TGI [32]: 10400 nM; GI50 [33]: 1740 nM; TGI [33]: 6470 nM; GI50 [34]: 3190 nM; TGI [34]: 11800 nM; GI50 [35]: 3070 nM; TGI [35]: 19000 nM; GI50 [36]: 3530 nM; TGI [36]: 15500 nM; GI50 [37]: 2550 nM; TGI [37]: 7150 nM; GI50 [38]: 1840 nM; TGI [38]: 9650 nM; GI50 [39]: 2220 nM; TGI [39]: 6160 nM; GI50 [40]: 1900 nM; TGI [40]: 6380 nM; GI50 [41]: 1940 nM; TGI [41]: 4540 nM; GI50 [42]: 1230 nM; TGI [42]: 4630 nM; GI50 [43]: 2120 nM; TGI [43]: 6860 nM; GI50 [44]: 493 nM; TGI [44]: 3740 nM; GI50 [45]: 338 nM; TGI [45]: 1210 nM; GI50 [46]: 1440 nM; TGI [46]: 5300 nM; GI50 [47]: 4040 nM; TGI [47]: 9740 nM; GI50 [48]: 363 nM; TGI [48]: 1690 nM; GI50 [49]: 1070 nM; TGI [49]: 5730 nM; GI50 [50]: 2810 nM; TGI [50]: 16500 nM; GI50 [51]: 1390 nM; TGI [51]: 6800 nM; GI50 [52]: 1680 nM; TGI [52]: 3510 nM; GI50 [53]: 1510 nM; TGI [53]: 12700 nM; GI50 [54]: 1390 nM; TGI [54]: 8550 nM; GI50 [55]: 1270 nM; TGI [55]: 7520 nM; GI50 [56]: 2570 nM; TGI [56]: 13000 nM; GI50 [57]: 315 nM; TGI [57]: 1120 nM
